Assay results reported in patent US20230270764A1, “COMPOSITION COMPRISING CANNABINOIDS, TERPENES, AND FLAVONOIDS FOR TREATING DEPRESSION” (priority 2020, published 2023).
pIC50: −log10 of the molar value. Read-outs that look alike come from different tables or passages of the source.

Experiments:
BV2 microglial cells [1] = test: Poly I:C-induced IL-6 release by BV2 microglia; assay type: cell-based, murine; conditions: 10 µM
Experimental: The BV2 cells are cultured at 37° C. in a humidified atmosphere with 5% CO2 in high D-glucose (4.5 g/L) Dulbecco’s modified Eagle’s medium (Sigma, Rehovot, Israel) supplemented with 5% heat-inactivated fetal bovine serum, streptomycin (100 µg/ml), and penicillin (100 units/ml) and sodium pyruvate (1 mM; all from Biological Industries Ltd., Kibbutz Beit Haemek, Israel). 24 hours before experiments with LPS stimulation, the BV2 cells are split into 24 well plates, 2×10^5 cells per well, covered with 1 ml of growth medium and allowed to attach overnight. 24 hr before experiments with α-synuclein, the BV2 cells are split into 96-well plates, 50,000 (5×10^4) cells per well, covered with 200 µl of growth medium and allowed to attach overnight. […]

BV2 microglial cells [2] = test: LPS-induced IL-6 release by BV2 microglia cell cultures (ELISA); assay type: cell-based, murine; conditions: for pIC50: Mus musculus
Experimental: The BV2 murine microglial cell line is used in these studies.
The BV2 cells are cultured at 37° C. in a humidified atmosphere with 5% CO2 in high D-glucose (4.5 g/L) Dulbecco’s modified Eagle’s medium (Sigma, Rehovot, Israel) supplemented with 5% heat-inactivated fetal bovine serum, streptomycin (100 µg/ml), and penicillin (100 units/ml) and sodium pyruvate (1 mM; all from Biological Industries Ltd., Kibbutz Beit Haemek, Israel). 24 hours before experiments with LPS stimulation, the BV2 cells are split into 24 well plates, 2×10^5 cells per well, covered with 1 ml of growth medium and allowed to attach overnight. 24 hr before experiments with α-synuclein, the BV2 cells are split into 96-well plates, 50,000 (5×10^4) cells per well, covered with 200 µl of growth medium and allowed to attach overnight. Cultures of BV2 microglia cells are first treated by an individual cannabinoid, or terpene or flavonoid selected from: Cannabidiol (CBD), Δ-9-tetrahydrocannabinol (THC), Δ-8-tetrahydrocannabinol (THC), cannabigerol (CBG), cannabichromene (CBC), cannabigerolic acid (CBGA), Cannabidiolic acid (CBDA), THC acid (THCA), cannabichromenic Acid (CBCA), Cannabidivarin (CBDV), tetrahydrocannabivarin (THCV), Cannabichromevarin (CBCV), Cannabichromerocin ([…]), Cannabivarin (CBV), Cannabicitran (CBT), Cannabinol (CBN), Cannabicyclol (CBL), Cannabigerorcin (CBGO), Cannabinodiol (CBND), β-caryophyllene, β-elemene, β-myrcene, linalool, α-pinene, β-pinene, eucalyptol, alpha-terpineol, valencene, geraniol (lemonol), bisabolol, nerolidol, ocimene, terpinolene, humulene, α-terpinene, camphene, fenchol, α-phellandrene, Δ3-carene, γ-cardinene, sabinene, limonene, β-amyrin, cycloartenol, cannflavin A, cannflavin B, kaempferol, quercetin, luteolin, apigenin, canniprene, orientin, β-sitosterol, vitexin, isovitexin, and chrysin. Additional cultures of BV2 microglia cells are treated by an individual cannabinoid, with at least one additional cannabinoid, and/or terpene, and/or flavonoid, and/or celecoxib. Additional cultures are exposed to the vehicle of these compounds (cremophor, ethanol and PBS, 1:1:18 (v/v/v)) (FIG. 2A). In some studies, cultures of BV2 microglia cells are treated by a specific whole plant cannabis extract, with or without supplementation with cannabinoid(s), and/or terpene(s) and/or flavonoid(s), and/or celecoxib (FIG. 2B).
For each individual cannabinoid mentioned above, 3-4 concentrations are used, ranging from 0.1 to 10 µM. For ultra-low dose Δ9-THC the concentration used is 0.01 µM. For each individual terpene or flavonoid mentioned above, 3-4 concentrations are used, ranging from 1 to 50 µM. For celecoxib, 3-4 concentrations are used, ranging from 0.1 to 10 µM. Two hours following the treatment, the cultures are exposed to one of the following microglia stimulators: LPS (Sigma L2630; Escherichia coli serotype O111:B4) is dissolved in D-PBS (Sigma, D8537) to a pre-stock concentration of 1 mg/ml, aliquoted and stored at -80° C. Stock solution of LPS at 10 ug/ml is prepared using sterile D-PBS, followed by filtering via 0.22 µm filter membrane, aliquoting and storing in -20° C. LPS is applied into the cell medium at a final concentration of 100 ng/ml. Poly I:C (Sigma, P1530) was first dissolved in sterile, molecular grade water to the concentration of 10 mg/ml (following the manufacturer’s instructions). This stock solution was further diluted to the concentration of 1 mg/ml in sterile PBS, and the aliquots stored in -20 °C.

C=C(C)[C@@H]1CCC(C)=C[C@H]1c1c(O)cc(CCCCC)cc1O [CBD, cannabidiol]
Poly I:C-induced IL-6 (BV2 microglial cells [1]): markedly decreased
release of IL-6 (BV2 microglial cells [2]; Example 3, 10 µM): significantly inhibited
IL-6 secretion vs Veh plus LPS (BV2 microglial cells [2]; Example 6, CBD or CBDV given by themselves): no significant effect
LPS-induced IL-6 release (BV2 microglial cells [2]; Example 25, CBD, CannA, CannB 5 and 10 µM, CannC 10 µM): significantly decreased
pIC50 (BV2 microglial cells [2]; BV-2, Example 6 (FIG. 7D), by itself, read-out: IC50 for inhibiting LPS-induced IL-6 release): 5.37
pIC50 (BV2 microglial cells [2]; BV-2, Example 6, addition of 1 µM CBDV, read-out: CBD IC50, LPS-induced IL-6 release): 5.51
pIC50 (BV2 microglial cells [2]; BV-2, Example 6, addition of 2.5 µM CBDV, read-out: CBD IC50, LPS-induced IL-6 release): 5.70
pIC50 (BV2 microglial cells [2]; BV-2, Example 6, addition of 5 µM CBDV, read-out: CBD IC50, LPS-induced IL-6 release): 5.77
pIC50 (BV2 microglial cells [2]; BV-2, Example 25 (FIG. 25E), extracts calculated on dominant cannabinoid, read-out: IC50 for IL-6 inhibition): 5.23
